For 23 compounds, TGI and GI50 results are on record in PubChem BioAssay (NCI).

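How tested: cells in 96-well plates exposed to compound for 48 hours at five concentrations. GI50 is the concentration that inhibits growth by half. Definition used: TGI = concentration required for complete inhibition of growth.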

What all share (assay): NCI tumour cell line growth inhibition, 48 h
In test [1] the test system is MDA-N.
The subject of test [2] is DLD-1 colon.
For test [3], the system named is DMS 114 small cell lung.
Test [4] concerns HOP-18 NSCLC.
The subject of test [5] is KM20L2 colon.
Test [6] concerns LXFL 529 NSCLC.
Test [7] has as its system RXF-631 renal.
Test [8] has as its system SNB-78 CNS.
Test [9] concerns XF 498 CNS.

In the case of `C[C@]12CC[C@H]3[C@@H](CC=C4C[C@@H](O)CC[C@@]43C)[C@@H]1CC[C@@H]2N(CCO)CCO`, the TGI in test [1] was > 100 µM.

Turning to `O=C1CCC(=O)N2CCCCN12`, the TGI in test [2], in test [3], in [4], in [5], in test [6] and in test [7] was > 100 µM throughout. In addition, the TGI in test [8] is > 100 µM.

On to `CC[C@@H]1CN(C)[C@H]2Cc3c([nH]c4ccccc34)C(=O)C[C@H]1C2C(=O)OC` (some centres undefined), for which the TGI in test [1] is > 100 µM.

`COC1/C=C\C=C(/C)C(=O)NC2=CC(=O)C(=O)C(=C2O)CC(C)CC(OC)C(O)C(C)/C=C(\C)C1OC(N)=O` (centres undefined): in test [1], the TGI amounted to 12.2 µM.

Take `NC(=O)C(=O)N/N=C(\CC1(O)C(=O)Nc2ccccc21)c1ccc2ccccc2c1` (centres undefined): the TGI in test [2] is > 100 µM; in [3], 55.4 µM; in test [4], > 100 µM; in test [6] it was > 100 µM; in test [8] it was > 100 µM; in test [9], 51.3 µM.

As for `Cc1cccc(C)c1NC(=O)C(=O)C1C(=O)NC(=O)NC1=O`, the TGI in test [2], in test [3], in [4], in test [5], in test [6] and in [7] was > 100 µM each time. Further, the TGI in test [8] and in test [9] was > 100 µM each time.

With `O=C1O[C@@H](c2ccc3c(c2)OCO3)C2C(=O)O[C@@H](c3ccc4c(c3)OCO4)C12` (some centres undefined), the TGI in test [3], in test [4], in test [5], in test [7], in test [8] and in [9] was > 100 µM each time.

As for `OCC(O)CC[CH2][Sn]([Br])([c]1ccccc1)[c]1ccccc1` (centres undefined), the GI50 was > 100 µM in [2]; > 100 µM in [4]; > 100 µM in test [5]; 88.5 µM in test [6]; > 100 µM in test [8]; > 100 µM in [9]. The TGI in test [2], in [4], in [5], in [6], in test [8] and in [9] was > 100 µM in each case.

On to `COc1ccc(/C=C/c2nccc3ccccc23)cc1OC`, for which the TGI in [1] is > 10 µM.

Take `COC(=O)c1c/c(=N\NC(=O)CC(=O)Nc2ccccc2OC)c2ccccc2o1`: the TGI in test [2], in [3], in [4], in [5], in test [6] and in test [8] was > 100 µM throughout.

Take `CCOC(=O)[C]1([Bi]([CH3])[CH3])N=NC(C(=O)OC)=C1C(=O)OC` (centres undefined): the GI50 in test [2] is 18.3 µM; in test [3], 20 µM; in test [4], 17.3 µM; in [6], 14.5 µM; in test [7], 17.2 µM; in [8] it was 27.4 µM. Besides, the TGI is 32.5 µM in [2]; 40 µM in test [3]; 31 µM in test [4]; 35.2 µM in [6]; 31.4 µM in [7]; > 100 µM in [8].

On to `C/C(CC(=O)Nc1cc(Cl)c(Cl)cc1Cl)=N\NC(N)=O`, for which the TGI in test [2], in test [3], in [5], in [6], in test [7] and in test [9] was > 100 µM in each case.

Turning to `O=C(/C=C/c1c(O)ccc2ccccc12)c1cccc(O)c1`, the TGI was > 100 µM in [2]; > 77.3 µM in test [3]; > 86.8 µM in test [4]; > 100 µM in test [5]; > 100 µM in test [6]; > 100 µM in test [8]. Moreover, in test [9], the TGI is > 100 µM.

In test [1], `CCC(C)c1c(Cl)nc(Cl)nc1Cl` (centres undefined) yielded a TGI of 23.8 µM.

In the case of `CC(C)(CC(=O)Nc1ccccc1)C(=O)O`, the TGI in [1] was > 100 µM.

As for `COC(=O)/C=C/c1cc(OC)c(OC)c(OC)c1`, the TGI in [2], in test [3], in test [4], in test [5], in [6] and in [7] was > 100 µM throughout. Further, the TGI in [9] is > 100 µM.

`CCC[CH2][Sn]([CH2]CCC)([O]C(=O)c1cccnc1SC)[O]C(=O)c1cccnc1SC`: the GI50 in test [2] is 0.347 µM; in test [3], 0.128 µM; in test [4] it was 1.48 µM; in test [5] it was 1.7 µM; in [6], 0.059 µM; in [8], 0.0893 µM. Besides, the GI50 in test [9] is 1.25 µM. Also, the TGI in [2] was 1.61 µM; in test [3] it was 0.829 µM; in test [4], 2.8 µM; in test [5], 3.51 µM; in test [6], 0.238 µM; in test [8] it was 1.52 µM. In test [9], the TGI is 2.5 µM.

Consider `Cn1c(=O)c2[nH]c(SCc3ccccn3)nc2n(C)c1=S`, for which the TGI in [1] is > 100 µM.

For `O=C1CCC2(c3ccc(F)cc3)Nc3cc(Cl)ccc3N12` (centres undefined), the TGI in test [2], in test [3], in [4], in test [5], in [6] and in test [8] was > 100 µM throughout. This compound showed a TGI in test [9] of 86.2 µM.

Consider `Cc1cc2c(cc1C)[n+](=O)c(C(=O)C/C(=N/NC(=O)CC#N)C(=O)Nc1ccccc1C(F)(F)F)c(C)n2[O-]`, for which the TGI in test [3] was > 100 µM; in [4] it was > 100 µM; in test [5], > 100 µM; in test [6], > 100 µM; in test [7] it was 33.3 µM; in [9] it was > 100 µM.

For the compound `COc1ccc(-c2cc(=O)c3ccc(O)cc3o2)cc1OC`, in [1], the TGI was > 100 µM.

As to `Cc1ccc2c(c1)[n+]([O-])c(N)n[n+]2[O-]`, the TGI in test [1] was > 100 µM.

On to `CSC(C1c2ccccc2N(c2ccc(C)cc2)C2=NC(=O)N(C)C(=O)C21Cl)S(=O)(=O)c1ccc(C)cc1` (centres undefined), for which the TGI came to 33.5 µM in test [2]; 49.8 µM in test [3]; 48.4 µM in [5]; 42.1 µM in [6]; 80.1 µM in [8]; 65.2 µM in test [9].
